System: 485176-168-R4-J1-PDC spheroids with HUVEC/MSC, viability
Test: Anticancer human tumor 485176-168-R4-J1-PDC patient-derived pancreatic adenocarcinoma cell line growth inhibition [GQUAD]
Settings: for IC50: curve of first compound; for viability, T/C: stronger effect = lower value
In short: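 Viability of tumor cells grown as complex spheroids with endothelial and stromal cells, exposed to drug combinations. Top concentration at or near clinical Cmax (else 10 microM), diluted in half-log increments.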

[1] = second compound 0.0316 µM, first compound 0.0316 µM
[2] = second compound 0.0316 µM, first compound 0.1 µM
[3] = second compound 0.0316 µM, first compound 0.316 µM
[4] = second compound 0.0316 µM, first compound 1 µM
[5] = second compound 0.0316 µM, first compound 3.16 µM
[6] = second compound 0.0316 µM, first compound 10 µM
[7] = second compound 0.1 µM, first compound 0.0316 µM
[8] = second compound 0.1 µM, first compound 0.1 µM
[9] = second compound 0.1 µM, first compound 0.316 µM
[10] = second compound 0.1 µM, first compound 1 µM
[11] = second compound 0.1 µM, first compound 3.16 µM
[12] = second compound 0.1 µM, first compound 10 µM
[13] = second compound 0.316 µM, first compound 0.0316 µM
[14] = second compound 0.316 µM, first compound 0.1 µM
[15] = second compound 0.316 µM, first compound 0.316 µM
[16] = second compound 0.316 µM, first compound 1 µM
[17] = second compound 0.316 µM, first compound 3.16 µM
[18] = second compound 0.316 µM, first compound 10 µM
[19] = second compound 1 µM, first compound 0.0316 µM
[20] = second compound 1 µM, first compound 0.1 µM
[21] = second compound 1 µM, first compound 0.316 µM
[22] = second compound 1 µM, first compound 1 µM
[23] = second compound 1 µM, first compound 3.16 µM
[24] = second compound 1 µM, first compound 10 µM
[25] = second compound 3.16 µM, first compound 0.0316 µM
[26] = second compound 3.16 µM, first compound 0.1 µM
[27] = second compound 3.16 µM, first compound 0.316 µM
[28] = second compound 3.16 µM, first compound 1 µM
[29] = second compound 3.16 µM, first compound 3.16 µM
[30] = second compound 3.16 µM, first compound 10 µM
[31] = second compound 10 µM, first compound 0.0316 µM
[32] = second compound 10 µM, first compound 0.1 µM
[33] = second compound 10 µM, first compound 0.316 µM
[34] = second compound 10 µM, first compound 1 µM
[35] = second compound 10 µM, first compound 3.16 µM
[36] = second compound 10 µM, first compound 10 µM
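Further: spheroids exposed to compounds for seven days before readout.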
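Wherever viability, T/C is given: percent viability relative to DMSO vehicle control wells as 100%.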

Question: What does the source list for `O=c1[nH]cc(F)c(=O)[nH]1` + CN(C)c1ccc(Nc2c3ccc(NC(=O)CCN4CCCC4)cc3nc3cc(NC(=O)CCN4CCCC4)ccc23)cc1?
Answer: IC50 (second compound 0.0316 µM): > 10000 nM; IC50 (second compound 0.1 µM): 2630 nM; IC50 (second compound 0.316 µM): > 10000 nM; IC50 (second compound 1 µM): > 10000 nM; IC50 (second compound 3.16 µM): > 10000 nM; IC50 (second compound 10 µM): 932 nM; viability, T/C [1]: 100%; viability, T/C [2]: 105%; viability, T/C [3]: 78.8%; viability, T/C [4]: 61.8%; viability, T/C [5]: 53.6%; viability, T/C [6]: 53.6%; viability, T/C [7]: 102%; viability, T/C [8]: 87.7%; viability, T/C [9]: 88.8%; viability, T/C [10]: 56.2%; viability, T/C [11]: 46.3%; viability, T/C [12]: 51%; viability, T/C [13]: 97.3%; viability, T/C [14]: 91.5%; viability, T/C [15]: 83.3%; viability, T/C [16]: 52%; viability, T/C [17]: 66.1%; viability, T/C [18]: 57.2%; viability, T/C [19]: 94.4%; viability, T/C [20]: 106%; viability, T/C [21]: 71.4%; viability, T/C [22]: 56.1%; viability, T/C [23]: 52%; viability, T/C [24]: 53.2%; viability, T/C [25]: 90.8%; viability, T/C [26]: 94.1%; viability, T/C [27]: 73.9%; viability, T/C [28]: 59.6%; viability, T/C [29]: 61.8%; viability, T/C [30]: 47.2%; viability, T/C [31]: 84.9%; viability, T/C [32]: 80.2%; viability, T/C [33]: 59.9%; viability, T/C [34]: 51.4%; viability, T/C [35]: 46.4%; viability, T/C [36]: 45.5%

Question: For `COc1ccc([C@@H](O)c2cc(-c3ncnc4cc(N5CCOCC5)ccc34)c(F)cc2Cl)nn1` + Cc1cnc(CNC(=O)c2c(=O)c3ccc(N4CCCN(C)CC4)nc3n3c2sc2ccccc23)cn1, which IC50 (second compound 0.0316 µM) is on record?
Answer: Its IC50 is 1100 nM.

Question: What about the IC50 (second compound 0.1 µM) of the same compound?
Answer: Its IC50 is 486 nM.

Question: And the IC50 (second compound 0.316 µM)?
Answer: The IC50 was 321 nM.

Question: And the IC50 (second compound 1 µM)?
Answer: The IC50 was 50.1 nM.

Question: What about the IC50 (second compound 3.16 µM) of the same compound?
Answer: The IC50 was less than 31.6 nM.

Question: And the IC50 (second compound 10 µM)?
Answer: The IC50 was less than 31.6 nM.

Question: What about the viability, T/C [1] of the same compound?
Answer: The viability, T/C was 94.3%.

Question: What about the viability, T/C [2] of the same compound?
Answer: The viability, T/C was 91.4%.

Question: And the viability, T/C [3]?
Answer: The viability, T/C was 84.5%.

Question: What about the viability, T/C [4] of the same compound?
Answer: Its viability, T/C is 48.5%.

Question: What about the viability, T/C [5] of the same compound?
Answer: The viability, T/C was 39.1%.

Question: What about the viability, T/C [6] of the same compound?
Answer: Its viability, T/C is 24.4%.

Question: And the viability, T/C [7]?
Answer: Its viability, T/C is 61.6%.

Question: And the viability, T/C [8]?
Answer: The viability, T/C was 67.9%.

Question: And the viability, T/C [9]?
Answer: Its viability, T/C is 45.4%.

Question: And the viability, T/C [10]?
Answer: Its viability, T/C is 47.9%.

Question: And the viability, T/C [11]?
Answer: The viability, T/C was 31.5%.

Question: And the viability, T/C [12]?
Answer: The viability, T/C was 18.7%.

Question: What about the viability, T/C [13] of the same compound?
Answer: The viability, T/C was 58.9%.

Question: And the viability, T/C [14]?
Answer: Its viability, T/C is 64.7%.

Question: What about the viability, T/C [15] of the same compound?
Answer: The viability, T/C was 46.9%.

Question: And the viability, T/C [16]?
Answer: The viability, T/C was 36.9%.

Question: What about the viability, T/C [17] of the same compound?
Answer: The viability, T/C was 29.5%.

Question: And the viability, T/C [18]?
Answer: The viability, T/C was 16.1%.

Question: And the viability, T/C [19]?
Answer: Its viability, T/C is 49.7%.

Question: What about the viability, T/C [20] of the same compound?
Answer: The viability, T/C was 54.6%.

Question: What about the viability, T/C [21] of the same compound?
Answer: Its viability, T/C is 37.2%.

Question: What about the viability, T/C [22] of the same compound?
Answer: The viability, T/C was 45.5%.

Question: What about the viability, T/C [23] of the same compound?
Answer: The viability, T/C was 30.1%.

Question: And the viability, T/C [24]?
Answer: Its viability, T/C is 14.2%.

Question: What about the viability, T/C [25] of the same compound?
Answer: The viability, T/C was 46%.

Question: And the viability, T/C [26]?
Answer: The viability, T/C was 43.7%.

Question: And the viability, T/C [27]?
Answer: The viability, T/C was 36.6%.

Question: And the viability, T/C [28]?
Answer: Its viability, T/C is 36%.

Question: What about the viability, T/C [29] of the same compound?
Answer: The viability, T/C was 31.9%.

Question: What about the viability, T/C [30] of the same compound?
Answer: Its viability, T/C is 14.2%.

Question: What about the viability, T/C [31] of the same compound?
Answer: The viability, T/C was 33.7%.

Question: What about the viability, T/C [32] of the same compound?
Answer: The viability, T/C was 39.7%.

Question: And the viability, T/C [33]?
Answer: Its viability, T/C is 36.5%.

Question: What about the viability, T/C [34] of the same compound?
Answer: Its viability, T/C is 29.1%.

Question: What about the viability, T/C [35] of the same compound?
Answer: The viability, T/C was 28.8%.

Question: And the viability, T/C [36]?
Answer: The viability, T/C was 14.9%.

Question: `CC(=O)O[C@H]1C(=O)[C@@]2(C)[C@H]([C@H](OC(=O)c3ccccc3)[C@]3(O)C[C@H](OC(=O)[C@H](O)[C@@H](NC(=O)c4ccccc4)c4ccccc4)C(C)=C1C3(C)C)[C@]1(OC(C)=O)CO[C@@H]1C[C@@H]2O` + Cc1cnc(CNC(=O)c2c(=O)c3ccc(N4CCCN(C)CC4)nc3n3c2sc2ccccc23)cn1 was tested. Which IC50 (second compound 0.0316 µM) did it give?
Answer: The IC50 was less than 31.6 nM.

Question: And the IC50 (second compound 0.1 µM)?
Answer: The IC50 was less than 31.6 nM.

Question: And the IC50 (second compound 0.316 µM)?
Answer: The IC50 was less than 31.6 nM.

Question: What about the IC50 (second compound 1 µM) of the same compound?
Answer: The IC50 was less than 31.6 nM.

Question: What about the IC50 (second compound 3.16 µM) of the same compound?
Answer: The IC50 was less than 31.6 nM.

Question: And the IC50 (second compound 10 µM)?
Answer: The IC50 was less than 31.6 nM.

Question: And the viability, T/C [1]?
Answer: The viability, T/C was 30%.

Question: And the viability, T/C [2]?
Answer: The viability, T/C was 13.6%.

Question: What about the viability, T/C [3] of the same compound?
Answer: The viability, T/C was 11.2%.

Question: What about the viability, T/C [4] of the same compound?
Answer: The viability, T/C was 12.7%.

Question: And the viability, T/C [5]?
Answer: The viability, T/C was 10.6%.

Question: What about the viability, T/C [6] of the same compound?
Answer: Its viability, T/C is 9.91%.

Question: What about the viability, T/C [7] of the same compound?
Answer: Its viability, T/C is 27.1%.

Question: And the viability, T/C [8]?
Answer: Its viability, T/C is 19%.

Question: And the viability, T/C [9]?
Answer: The viability, T/C was 12%.

Question: And the viability, T/C [10]?
Answer: Its viability, T/C is 12.8%.

Question: What about the viability, T/C [11] of the same compound?
Answer: The viability, T/C was 11.7%.

Question: And the viability, T/C [12]?
Answer: The viability, T/C was 9.87%.

Question: And the viability, T/C [13]?
Answer: Its viability, T/C is 22%.

Question: What about the viability, T/C [14] of the same compound?
Answer: The viability, T/C was 14.2%.

Question: What about the viability, T/C [15] of the same compound?
Answer: Its viability, T/C is 10.4%.

Question: And the viability, T/C [16]?
Answer: The viability, T/C was 11.8%.

Question: And the viability, T/C [17]?
Answer: Its viability, T/C is 13.8%.

Question: What about the viability, T/C [18] of the same compound?
Answer: The viability, T/C was 12.9%.

Question: What about the viability, T/C [19] of the same compound?
Answer: Its viability, T/C is 23.1%.

Question: And the viability, T/C [20]?
Answer: The viability, T/C was 17.3%.

Question: What about the viability, T/C [21] of the same compound?
Answer: The viability, T/C was 17.5%.

Question: And the viability, T/C [22]?
Answer: The viability, T/C was 11.9%.

Question: And the viability, T/C [23]?
Answer: Its viability, T/C is 11.8%.

Question: And the viability, T/C [24]?
Answer: Its viability, T/C is 14.7%.

Question: What about the viability, T/C [25] of the same compound?
Answer: The viability, T/C was 26%.

Question: What about the viability, T/C [26] of the same compound?
Answer: The viability, T/C was 17.8%.

Question: And the viability, T/C [27]?
Answer: The viability, T/C was 12.8%.

Question: What about the viability, T/C [28] of the same compound?
Answer: Its viability, T/C is 12.8%.

Question: What about the viability, T/C [29] of the same compound?
Answer: The viability, T/C was 15.3%.

Question: What about the viability, T/C [30] of the same compound?
Answer: The viability, T/C was 12.7%.

Question: And the viability, T/C [31]?
Answer: The viability, T/C was 23.4%.

Question: What about the viability, T/C [32] of the same compound?
Answer: Its viability, T/C is 14.8%.

Question: And the viability, T/C [33]?
Answer: The viability, T/C was 14.5%.

Question: And the viability, T/C [34]?
Answer: Its viability, T/C is 12.9%.

Question: What about the viability, T/C [35] of the same compound?
Answer: The viability, T/C was 12.8%.

Question: And the viability, T/C [36]?
Answer: The viability, T/C was 11.2%.
